# Measurements taken from patent US20200030355A1, “COMBINATION THERAPY FOR TREATING CANCER” (Epizyme, Inc., priority 2014, published 2020).
# Structures can show the parent of a compound that is named as a salt. Where two headings read alike, the source gives them in different places.
# How the values were obtained:
# Format in all cases: cell-based, human
# SKM-1 cells = assay: EPZ-5676 300 nM 7-day pre-treatment, then second compound 72 hours, ATPLite, IC50 shift (Example 6)
# Protocol: (§1) Cells were then equilibrated in incubators for 24 hours before treatment with a second compound. Treated assay plates were incubated with a second compound for 72 hours. After this time, plates were developed for endpoint analysis using ATPLite to measure ATP content, which is used as an indicator of cell viability.
# (§2) “N/D” means that IC50 of the second compound could not be determined for both conditions.
# MOLM-13 cells = assay: as above; settings: 300 nM EPZ-5676 or DMSO 7-day pre-treatment, then 2nd compound 72 hours, Synergy = IC50 of 2nd compound decreased by 2-fold or more vs DMSO control
# Protocol: as §1, §2
# MOLM-13 (MLL-AF9) = assay: Combination proliferation study with Compound A2 (ATP/CellTiter-Glo, Chou-Talalay combination index); settings: 7 Day Cotreatment Model, Table 4
# Protocol: (§3) The acute myelogenous leukemia cell lines MV4-11 (MLL-AF4) and MOLM-13 (MLL-AF9) were obtained from American Type Culture Collection (ATCC; Rockville, Md.) and Deutsche Sammlung von Mikroorganismen and Zellkulturen (DSMZ; Braunschweig, Germany) respectively.
# (§4) Studies were performed using MLL-rearranged cell lines in vitro to evaluate the anti-proliferative effect of a combination of two agents together on cell growth. Initial proliferation studies were performed to determine the IC50 of a given compound in each cell line. The cell counts were measured by ATP quantitation using the Promega Cell Titer Glo kit and luminescence values corresponded to the amount of ATP in a given well.
# (§5) Compounds were evaluated for synergy in the co-treatment phase by testing the compounds in a concentration range which was bracketed around their IC50 values. The compounds were plated to a 96 well plate in a matrix format (FIG. 3) which includes increasing concentrations of each drug in the combination in a constant ratio, in addition to the effect of each compound alone in the study. Cells were seeded and grown in the log-linear phase for 3 or 7 days in the co-treatment phase. Minimum inhibition (DMSO alone) controls were used in each plate to calculate fraction affected (Fa) of a test well. DMSO concentration was kept at 0.1% v/v.
# (§6) The drug combination analysis was performed utilizing the Chou-Talalay method Synergy was determined using the software package Calcusyn by Biosoft. The combination index (CI) is a quantitative term used to describe the level of synergy or antagonism in a given test system. A combination index less than one indicates synergy, and a CI greater than one indicates antagonism. Further, strong synergism is achieved when the CI value falls below 0.3.
# (§7) Graphs representing values of combination index (CI) versus Fractional effect (Fa) known as Fa-CI plots were generated and synergy was evaluated. Drug synergy was statistically defined by CI values less than 1, antagonism by CI>1 and additive effect by CI equal to 1.
# Graphs representing values of combination index (CI) versus Fractional effect (Fa) known as Fa-CI plots were generated and synergy was evaluated. Drug synergy was statistically defined by CI values less than 1, antagonism by CI>1 and additive effect by CI equal to 1. […]
# Cell viability was measured via ATP content using CellTiter-Glo® (Promega).
# as §4, with “Proliferation studies” for “Studies”, “MOLM-13, MV4-11 and SKM-1” for “MLL-rearranged”, “cancer cell killing” for “anti-proliferative”, “IC50 values” for “IC50”, “correspond” for “corresponded”, “well. […]” for “well.”
# Compounds evaluated for synergy in the co-treatment phase were tested in a range which was bracketed around the IC50's.
# MV4-11 (MLL-AF4) = assay: as above; settings: 7 Day Cotreatment Model, Table 4
# Protocol: as §3, §4, §5, §6, §7, §7
# The HP-D300 digital dispenser (Tecan) was used to dispense compounds in a combinatorial matrix. […] Cell viability was measured via ATP content using CellTiter-Glo® (Promega).
# Viability was determined using CellTiter-Glo® (Promega).
# as §4, with “Proliferation studies” for “Studies”, “MOLM-13, MV4-11 and SKM-1” for “MLL-rearranged”, “cancer cell killing” for “anti-proliferative”, “IC50 values” for “IC50”, “correspond” for “corresponded”
# These studies were performed to evaluate both the combinatorial effect of compounds on cell killing and the durability of the effect by washing out one of the agents.
# Compounds evaluated for synergy in the co-treatment phase were tested in a range which was bracketed around the IC50's. The compounds were plated to a 96 well plate in a matrix format which includes increasing concentrations of each drug in the combination in a constant ratio, in addition to the effect of each compound alone in the study.
# [1] = SKM-1 cells, 300 nM EPZ-5676 or DMSO 7-day pre-treatment, then 2nd compound 72 hours, ATPLite, Synergy = IC50 of 2nd compound decreased by 2-fold or more vs DMSO control
Molecule,SKM-1 (summary of combination study: EPZ-5676 + 2nd compound) (SKM-1 cells; [1]),other results
CCN(CC)CCNC(=O)c1c(C)[nH]c(/C=C2\C(=O)Nc3ccc(F)cc32)c1C [Sunitinib Malate],2.0,
COc1cc2c(NC3CCN(C4CCCCC4)CC3)nc(N3CCCN(C(C)C)CC3)nc2cc1OCCCN1CCCCC1 [UNC 0646],Synergy (considered synergistic if the IC50 value of the second compound decreased by 2-fold or more when EPZ-5676 was added as compared to the DMSO control),MOLM-13 (summary of combination study: EPZ-5676 + 2nd compound) (MOLM-13 cells): Synergy (considered synergistic if the IC50 value of the second compound decreased by 2-fold or more when EPZ-5676 was added as compared to the DMSO control)
CN(C)CC[C@H](CSc1ccccc1)Nc1ccc(S(=O)(=O)NC(=O)c2ccc(N3CCN(Cc4ccccc4-c4ccc(Cl)cc4)CC3)cc2)cc1[N+](=O)[O-] [ABT-737],Synergy (considered synergistic if the IC50 value of the second compound decreased by 2-fold or more when EPZ-5676 was added as compared to the DMSO control),
CC(C)C[C@H](NC(=O)CNC(=O)c1cc(Cl)ccc1Cl)B(O)O [MLN2238],Synergy (considered synergistic if the IC50 value of the second compound decreased by 2-fold or more when EPZ-5676 was added as compared to the DMSO control),
C=C[C@@]1(C)CC(=O)[C@]2(O)[C@@]3(C)[C@@H](O)CCC(C)(C)[C@@H]3[C@H](OC(=O)CCN(C)C)[C@H](OC(C)=O)[C@@]2(C)O1.Cl [NKH 477],Synergy (considered synergistic if the IC50 value of the second compound decreased by 2-fold or more when EPZ-5676 was added as compared to the DMSO control),
Arsenic Trioxide,,SKM-1 (summary of combination study: EPZ-5676 + 2nd compound) (SKM-1 cells): 2.0
COCc1c(C(C)C)nc(C(C)C)c(/C=C/[C@@H](O)C[C@@H](O)CC(=O)O)c1-c1ccc(F)cc1 [Cerivastatin Sodium],Synergy (considered synergistic if the IC50 value of the second compound decreased by 2-fold or more when EPZ-5676 was added as compared to the DMSO control),MOLM-13 (summary of combination study: EPZ-5676 + 2nd compound) (MOLM-13 cells): Synergy (considered synergistic if the IC50 value of the second compound decreased by 2-fold or more when EPZ-5676 was added as compared to the DMSO control)
N#Cc1c(C2CCNCC2)cc(-c2c(O)cccc2OCC2CC2)nc1N [IKK-2 Inhibitor VIII],Synergy (considered synergistic if the IC50 value of the second compound decreased by 2-fold or more when EPZ-5676 was added as compared to the DMSO control),
C#Cc1cccc(Nc2ncnc3cc(OCCOC)c(OCCOC)cc23)c1 [Erlotinib Hydrochloride],Synergy (considered synergistic if the IC50 value of the second compound decreased by 2-fold or more when EPZ-5676 was added as compared to the DMSO control),
COc1ccc(-c2ccc3c(N4CCOC[C@@H]4C)nc(N4CCOC[C@@H]4C)nc3n2)cc1CO [AZD 8055],Synergy (considered synergistic if the IC50 value of the second compound decreased by 2-fold or more when EPZ-5676 was added as compared to the DMSO control),
C[C@H]1C[C@@H]2[C@H]([C@@H](O)C[C@@]3(C)[C@H]2CC[C@]3(O)C(=O)CO)[C@@]2(C)C=CC(=O)C=C12 [Methylprednisolone],Synergy (considered synergistic if the IC50 value of the second compound decreased by 2-fold or more when EPZ-5676 was added as compared to the DMSO control),
Cc1sc2c(c1C)C(c1ccc(Cl)cc1)=N[C@@H](CC(N)=O)c1nnc(C)n1-2 [CPI-203],Synergy (considered synergistic if the IC50 value of the second compound decreased by 2-fold or more when EPZ-5676 was added as compared to the DMSO control),MOLM-13 (summary of combination study: EPZ-5676 + 2nd compound) (MOLM-13 cells): Synergy (considered synergistic if the IC50 value of the second compound decreased by 2-fold or more when EPZ-5676 was added as compared to the DMSO control)
CS(=O)(=O)N1CCN(Cc2cc3nc(-c4cccc5[nH]ncc45)nc(N4CCOCC4)c3s2)CC1 [GDC-0941],Synergy (considered synergistic if the IC50 value of the second compound decreased by 2-fold or more when EPZ-5676 was added as compared to the DMSO control),MOLM-13 (summary of combination study: EPZ-5676 + 2nd compound) (MOLM-13 cells): Synergy (considered synergistic if the IC50 value of the second compound decreased by 2-fold or more when EPZ-5676 was added as compared to the DMSO control)
CC(C)CC(=O)Nc1[nH]nc2c1CN(C(=O)C1CCN(C)CC1)C2(C)C [PHA-793887],Synergy (considered synergistic if the IC50 value of the second compound decreased by 2-fold or more when EPZ-5676 was added as compared to the DMSO control),
COc1ccc(Cc2nccc3cc(OC)c(OC)cc23)cc1OC [Papaverine Hydrochloride],Synergy (considered synergistic if the IC50 value of the second compound decreased by 2-fold or more when EPZ-5676 was added as compared to the DMSO control),
O=C(c1cn(Cc2cncn2Cc2ccc(Br)cc2)cc1-c1cccc2ccccc12)N1CCOCC1 [LB42708],Synergy (considered synergistic if the IC50 value of the second compound decreased by 2-fold or more when EPZ-5676 was added as compared to the DMSO control),MOLM-13 (summary of combination study: EPZ-5676 + 2nd compound) (MOLM-13 cells): Synergy (considered synergistic if the IC50 value of the second compound decreased by 2-fold or more when EPZ-5676 was added as compared to the DMSO control)
O=C(Nc1cccc(Nc2ncc(Br)c(NCCc3cnc[nH]3)n2)c1)N1CCCC1 [BX-912],Synergy (considered synergistic if the IC50 value of the second compound decreased by 2-fold or more when EPZ-5676 was added as compared to the DMSO control),
COc1ccc(CCc2nc3cc(-c4c(C)noc4C)ccc3n2C[C@H](C)N2CCOCC2)cc1Cl [SGC-CBP30],Synergy (considered synergistic if the IC50 value of the second compound decreased by 2-fold or more when EPZ-5676 was added as compared to the DMSO control),
CCCc1cc2c(N3CCN(C4=NCC(C)(C)S4)CC3)ncnc2s1 [Menin-MLL inhibitor MI-2],,"Combination with Compound A2, MOLM-13 (MLL-AF9) (MOLM-13 (MLL-AF9)): Synergy (Drug synergy was statistically defined by CI values less than 1); Combination with Compound A2, MV4-11 (MLL-AF4) (MV4-11 (MLL-AF4)): Synergy (Drug synergy was statistically defined by CI values less than 1)"
Nc1nc(Cl)nc2c1ncn2[C@@H]1O[C@H](CO)[C@@H](O)[C@@H]1F [Clofarabine],,"Combination with Compound A2, MOLM-13 (MLL-AF9) (MOLM-13 (MLL-AF9)): Synergy (Drug synergy was statistically defined by CI values less than 1); Combination with Compound A2, MV4-11 (MLL-AF4) (MV4-11 (MLL-AF4)): Synergy (Drug synergy was statistically defined by CI values less than 1)"
CC1(C)CCC(CN2CCN(c3ccc(C(=O)NS(=O)(=O)c4ccc(NCC5CCOCC5)c([N+](=O)[O-])c4)c(Oc4cnc5[nH]ccc5c4)c3)CC2)=C(c2ccc(Cl)cc2)C1 [ABT-199],,"Combination with Compound A2, MOLM-13 (MLL-AF9) (MOLM-13 (MLL-AF9)): Additive --> Synergy; Combination with Compound A2, MV4-11 (MLL-AF4) (MV4-11 (MLL-AF4)): Synergy (Drug synergy was statistically defined by CI values less than 1)"
